In brackets after ≈: the same amount, converted by molar mass.
Columns and labels:
Assay in all cases: Minimum inhibitory concentration (MIC), Heart Infusion agar
Assay type in all cases: cell-based
[1] = tested on: Prot. vulgaris GN-76; conditions: Proteus vulgaris, GN76; Prot. vulgaris GN-76; 10^6 cells/ml; 20 hours, 37° C.; read-out: minimum inhibitory concentration (MIC)
Method: (§1) Antibacterial activities of the representative compounds (Ib) of the 7α-methoxycephalosporins according to this invention are shown in Table 1. [drawing 20]
(§2) The figures given in Table 1 represent the minimum inhibitory concentration (MIC in mcg/ml) of each compound, which was determined according to the method described in "Chemotherapy (Society of Chemotherapy, Japan), Vol. 16, 98-99 (1968)": A culture obtained by cultivating the test bacterium in a Heart Infusion broth (Eiken Kagaku Co.) was inoculated into a Heart Infusion agar medium (Eiken Kagaku Co.). After 20 hours of the incubation at 37° C., the growth of the bacterium was inspected to determine the minimum inhibitory concentration (MIC in mcg/ml). The inoculation rate of the bacterium was 10^4 cells/plate (10^6 cells/ml).
(§3) (1) Minimum inhibitory concentration (MIC in mcg/ml).

[2] = tested on: Ps. aeruginosa S-68; conditions: Pseudomonas aeruginosa, S68; Ps. aeruginosa S-68; 10^6 cells/ml; 20 hours, 37° C.; read-out: minimum inhibitory concentration (MIC)
Method: as §1, §2, §3

[3] = tested on: Ser. marcescens W-8; conditions: Serratia marcescens, W8; Ser. marcescens W-8; 10^6 cells/ml; 20 hours, 37° C.; read-out: minimum inhibitory concentration (MIC)
Method: as §1, §2, §3

[4] = tested on: Citrobacter N-7; conditions: N7; Citrobacter N-7; 10^6 cells/ml; 20 hours, 37° C.; read-out: minimum inhibitory concentration (MIC)
Method: as §1, §2, §3

[5] = tested on: E. coli NIHJ; conditions: Escherichia coli; E. coli NIHJ; 10^6 cells/ml; 20 hours, 37° C.; read-out: minimum inhibitory concentration (MIC)
Method: as §1, §2, §3

[6] = tested on: C. freundii GN-346 (Cephalosporinase-producing bacterium); conditions: Citrobacter freundii, GN346; C. freundii GN-346; 10^6 cells/ml; 20 hours, 37° C.; read-out: minimum inhibitory concentration (MIC)
Method: as §1, §2, §3

[7] = tested on: Ps. aeruginosa IFO-3445; conditions: Pseudomonas aeruginosa, IFO3445; Ps. aeruginosa IFO-3445; 10^6 cells/ml; 20 hours, 37° C.; read-out: minimum inhibitory concentration (MIC)
Method: as §1, §2, §3

[8] = tested on: S. aureus F-19 (Penicillinase-producing bacterium); conditions: Staphylococcus aureus; S. aureus F-19; 10^6 cells/ml; 20 hours, 37° C.; read-out: minimum inhibitory concentration (MIC)
Method: as §1, §2, §3

[9] = tested on: Ent. cloacae IID977; conditions: Enterobacter cloacae; Ent. cloacae IID977; 10^6 cells/ml; 20 hours, 37° C.; read-out: minimum inhibitory concentration (MIC)
Method: as §1, §2, §3

[10] = tested on: K. pneumoniae Y-50; conditions: Klebsiella pneumoniae, Y50; K. pneumoniae Y-50; 10^6 cells/ml; 20 hours, 37° C.; read-out: minimum inhibitory concentration (MIC)
Method: as §1, §2, §3

[11] = tested on: Acinetobacter caloaceticus A-6; conditions: A6; Acinetobacter caloaceticus A-6; 10^6 cells/ml; 20 hours, 37° C.; read-out: minimum inhibitory concentration (MIC)
Method: as §1, §2, §3

[12] = tested on: Ser. marcescens IID620; conditions: Serratia marcescens; Ser. marcescens IID620; 10^6 cells/ml; 20 hours, 37° C.; read-out: minimum inhibitory concentration (MIC)
Method: as §1, §2, §3

[13] = tested on: Klebsiella spp. Y-72; conditions: SPP.Y72; Klebsiella spp. Y-72; 10^6 cells/ml; 20 hours, 37° C.; read-out: minimum inhibitory concentration (MIC)
Method: as §1, §2, §3

[14] = tested on: Ser. marcescens W-35; conditions: Serratia marcescens, W35, 20 h, Ser. marcescens W-35; 10^6 cells/ml; 20 hours, 37° C. (Table 1); read-out: minimum inhibitory concentration (MIC)
Method: as §1
The figures given in Table 1 represent the minimum inhibitory concentration (MIC in mcg/ml) of each compound, which was determined according to the method described in "Chemotherapy (Society of Chemotherapy, Japan), Vol. 16, 98-99 (1968)": A culture obtained by cultivating the test bacterium in a Heart Infusion broth (Eiken Kagaku Co.) was inoculated into a Heart Infusion agar medium (Eiken Kagaku Co.). After 20 hours of the incubation at 37° C., the growth of the bacterium was inspected to determine the minimum inhibitory concentration (MIC in mcg/ml). […]
as §3

Compound | MIC [1] [µg/mL] | MIC [2] [µg/mL] | MIC [3] [µg/mL] | MIC [4] [µg/mL] | MIC [5] [µg/mL] | MIC [6] [µg/mL] | MIC [7] [µg/mL] | MIC [8] [µg/mL] | MIC [9] [µg/mL] | MIC [10] [µg/mL] | MIC [11] [µg/mL] | MIC [12] [µg/mL] | MIC [13] [µg/mL] | MIC [14] [µg/mL]
CCN1CCN(C(=O)NC(C(=O)N[C@]2(OC)C(=O)N3C(C(=O)O)=C(CSc4nnnn4C)CS[C@@H]32)c2csc(N)n2)C(=O)C1=O (stereo partly drawn) | 0.78 (≈ 1.14 µM) | 25 (≈ 36.7 µM) | 100 (≈ 147 µM) | 1.56 (≈ 2.29 µM) | ≤ 0.1 | 50 (≈ 73.3 µM) | 12.5 (≈ 18.3 µM) | 3.13 (≈ 4.59 µM) | 25 (≈ 36.7 µM) | 0.2 (≈ 0.293 µM) | 25 (≈ 36.7 µM) | ≤ 0.1 | 1.56 (≈ 2.29 µM) | –
CCN1CCN(C(=O)NC(C(=O)N[C@]2(OC)C(=O)N3C(C(=O)O)=C(CSc4nnnn4CCO)CS[C@@H]32)c2ccco2)C(=O)C1=O (stereo partly drawn) | 1.56 (≈ 2.3 µM) | – | – | – | ≤ 0.1 | – | 12.5 (≈ 18.4 µM) | 6.25 (≈ 9.2 µM) | 25 (≈ 36.8 µM) | 0.2 (≈ 0.294 µM) | – | ≤ 0.1 | – | –
CCN1CCN(C(=O)NC(C(=O)N[C@]2(OC)C(=O)N3C(C(=O)O)=C(CSc4nnnn4CCN)CS[C@@H]32)c2cccs2)C(=O)C1=O (stereo partly drawn) | 0.78 (≈ 1.12 µM) | 12.5 (≈ 18 µM) | 50 (≈ 72 µM) | 3.13 (≈ 4.51 µM) | ≤ 0.1 | 25 (≈ 36 µM) | 12.5 (≈ 18 µM) | 6.25 (≈ 9 µM) | 50 (≈ 72 µM) | 0.78 (≈ 1.12 µM) | 12.5 (≈ 18 µM) | 0.2 (≈ 0.288 µM) | 3.13 (≈ 4.51 µM) | 6.25 (≈ 9 µM)
CCN1CCN(C(=O)NC(C(=O)N[C@]2(OC)C(=O)N3C(C(=O)O)=C(CSc4nnnn4CC(C)=O)CS[C@@H]32)c2cccs2)C(=O)C1=O (stereo partly drawn) | 0.78 (≈ 1.1 µM) | 25 (≈ 35.3 µM) | 50 (≈ 70.6 µM) | 6.25 (≈ 8.83 µM) | ≤ 0.1 | 25 (≈ 35.3 µM) | 25 (≈ 35.3 µM) | 6.25 (≈ 8.83 µM) | 50 (≈ 70.6 µM) | 0.39 (≈ 0.551 µM) | 25 (≈ 35.3 µM) | 0.2 (≈ 0.283 µM) | 6.25 (≈ 8.83 µM) | 25 (≈ 35.3 µM)
CCN1CCN(C(=O)NC(C(=O)N[C@]2(OC)C(=O)N3C(C(=O)O)=C(CSc4nnnn4CC(N)=O)CS[C@@H]32)c2cccs2)C(=O)C1=O (stereo partly drawn) | 0.78 (≈ 1.1 µM) | 12.5 (≈ 17.6 µM) | 25 (≈ 35.3 µM) | 3.13 (≈ 4.42 µM) | ≤ 0.1 | – | 12.5 (≈ 17.6 µM) | 3.13 (≈ 4.42 µM) | 12.5 (≈ 17.6 µM) | 0.39 (≈ 0.55 µM) | 6.25 (≈ 8.82 µM) | 0.2 (≈ 0.282 µM) | 1.56 (≈ 2.2 µM) | 12.5 (≈ 17.6 µM)
CCN1CCN(C(=O)NC(C(=O)N[C@]2(OC)C(=O)N3C(C(=O)O)=C(CSc4nnnn4CC(C)=NO)CS[C@@H]32)c2cccs2)C(=O)C1=O (stereo partly drawn) | 0.78 (≈ 1.08 µM) | 12.5 (≈ 17.3 µM) | 50 (≈ 69.2 µM) | 6.25 (≈ 8.65 µM) | ≤ 0.1 | 50 (≈ 69.2 µM) | 25 (≈ 34.6 µM) | 3.13 (≈ 4.33 µM) | 25 (≈ 34.6 µM) | 0.78 (≈ 1.08 µM) | 12.5 (≈ 17.3 µM) | 0.2 (≈ 0.277 µM) | 6.25 (≈ 8.65 µM) | 25 (≈ 34.6 µM)
C=Cn1nnnc1SCC1=C(C(=O)O)N2C(=O)[C@](NC(=O)C(NC(=O)N3CCN(CC)C(=O)C3=O)c3ccco3)(OC)[C@H]2SC1 (stereo partly drawn) | 3.13 (≈ 4.73 µM) | – | – | – | ≤ 0.1 | – | 25 (≈ 37.8 µM) | 3.13 (≈ 4.73 µM) | 25 (≈ 37.8 µM) | 0.2 (≈ 0.302 µM) | – | ≤ 0.1 | – | –
CCN1CCN(C(=O)NC(C(=O)N[C@]2(OC)C(=O)N3C(C(=O)O)=C(CSc4nnnn4CC(N)=O)CS[C@@H]32)c2ccco2)C(=O)C1=O (stereo partly drawn) | 1.56 (≈ 2.25 µM) | – | – | – | ≤ 0.1 | – | 12.5 (≈ 18 µM) | 6.25 (≈ 9.02 µM) | 25 (≈ 36.1 µM) | 0.2 (≈ 0.289 µM) | – | ≤ 0.1 | – | 6.25 (≈ 9.02 µM)
CCN1CCN(C(=O)NC(C(=O)N[C@]2(OC)C(=O)N3C(C(=O)O)=C(CSc4nnnn4CC(N)=O)CS[C@@H]32)c2csc(N)n2)C(=O)C1=O (stereo partly drawn) | 1.56 (≈ 2.15 µM) | – | – | – | ≤ 0.1 | – | 12.5 (≈ 17.2 µM) | 3.13 (≈ 4.32 µM) | – | – | 12.5 (≈ 17.2 µM) | ≤ 0.1 | – | –
CCN1CCN(C(=O)NC(C(=O)N[C@]2(OC)C(=O)N3C(C(=O)O)=C(COC(C)=O)CS[C@@H]32)c2csc(N)n2)C(=O)C1=O (stereo partly drawn) [OCOCH3] | 3.13 (≈ 5 µM) | – | – | – | ≤ 0.1 | – | 25 (≈ 40 µM) | 6.25 (≈ 9.99 µM) | – | – | 25 (≈ 40 µM) | 0.39 (≈ 0.623 µM) | – | –
CCN1CCN(C(=O)NC(C(=O)N[C@]2(OC)C(=O)N3C(C(=O)O)=C(CSc4nnn(CCN(C)C)n4)CS[C@@H]32)c2cccs2)C(=O)C1=O (stereo partly drawn) | 3.13 (≈ 4.33 µM) | – | 50 (≈ 69.2 µM) | 3.13 (≈ 4.33 µM) | ≤ 0.1 | 25 (≈ 34.6 µM) | 50 (≈ 69.2 µM) | 6.25 (≈ 8.65 µM) | 25 (≈ 34.6 µM) | 0.78 (≈ 1.08 µM) | 25 (≈ 34.6 µM) | 0.2 (≈ 0.277 µM) | – | –
CCN1CCN(C(=O)NC(C(=O)N[C@]2(OC)C(=O)N3C(C(=O)O)=C(CSc4nnc(C)s4)CS[C@@H]32)c2csc(N)n2)C(=O)C1=O (stereo partly drawn) | 3.13 (≈ 4.49 µM) | – | – | – | ≤ 0.1 | – | 25 (≈ 35.8 µM) | 6.25 (≈ 8.96 µM) | – | – | 25 (≈ 35.8 µM) | 0.39 (≈ 0.559 µM) | – | –
CCN1CCN(C(=O)NC(C(=O)N[C@]2(OC)C(=O)N3C(C(=O)O)=C(CSc4nnnn4C)CS[C@@H]32)c2ccco2)C(=O)C1=O (stereo partly drawn) | 0.78 (≈ 1.2 µM) | 25 (≈ 38.5 µM) | 100 (≈ 154 µM) | – | ≤ 0.1 | 25 (≈ 38.5 µM) | 12.5 (≈ 19.2 µM) | 6.25 (≈ 9.62 µM) | 25 (≈ 38.5 µM) | 0.2 (≈ 0.308 µM) | 12.5 (≈ 19.2 µM) | ≤ 0.1 | 6.25 (≈ 9.62 µM) | 12.5 (≈ 19.2 µM)

— patent US4321265A, “7α-Methoxycephalosporins” (Toyama Chemical Co., Ltd., priority 1977, dated 1982)
